This is an account of results in PMC4621994 (British Journal of Pharmacology, 2015).

Values joined by “and” are separate entries in the source; they are usually repeats but may differ in a detail not shown here. Equal entries are not always repeated. “Also recorded” adds a separate entry of the source. Where two headings read alike, the source gives them in different places.

The test system of data set [1] is mIPSCs in hippocampal neurons. The format is cell-based, rat.
In data set [2] the test system is tonically active GABAA receptors in hippocampal neurons. The format is cell-based, rat.
Data set [3] concerns native GABAA receptors in hippocampal neurons. Kind of data set: GABA-evoked currents in cultured hippocampal neurons, perforated patch. In kind it is cell-based, rat. To be noted: for GABA Emax (normalized) in the presence of flupirtine (30 μM) / GABA Emax (normalized), solvent: Hippocampus neurons.
For data set [4], the system named is αβ and γ-containing recombinant GABAA receptors. The format is cell-based, rat.
Data set [5] addresses T1, δ-containing GABAA receptors in hippocampal neurons (Rattus norvegicus, UniProt P18506).
T1 construct: endogenous in cells; host or cells: primary cultured rat hippocampal neurons
Kind of data set: THIP-evoked currents in cultured hippocampal neurons. The format is cell-based. To be noted: 30 μM flupirtine; 3 μM THIP; greater extent than 3 μM GABA in 5 mM penicillin.

In another data set the target is T2, α1β2 GABAA receptor (Rattus norvegicus, UniProt P62813+P63138).
T2 construct: expressed in transfected cells; host or cells: tsA 201 cells
The experiment in a line: GABA-evoked currents through recombinant receptors in tsA 201 cells. In kind it is cell-based. The conditions noted are these: 30 μM flupirtine, normalized to 30 μM GABA in solvent.

Data set [6] deals with Kv7 channels in hippocampal neurons. Kind of data set: K+ currents in hippocampal neurons, ramp hyperpolarizations, amplitude at −30 mV. In kind it is cell-based, rat.
A further data set has as its target T3, α4β3δ GABAA receptor (Rattus norvegicus, UniProt P18506+P28471+P63079).
T3 construct: expressed in transfected cells; host or cells: tsA 201 cells
Kind of data set: GABA-evoked currents through recombinant receptors in tsA 201 cells. In kind it is cell-based.

Data set [7] has as its system aEPSCs in hippocampal neurons. Kind of data set: Autaptic excitatory postsynaptic currents (aEPSCs) in hippocampal microcultures. In kind it is cell-based, rat.
For another data set, the target named is T4, α1β2δ GABAA receptor (Rattus norvegicus, UniProt P18506+P62813+P63138).
T4 construct: expressed in transfected cells; host or cells: tsA 201 cells
Kind of data set: GABA-evoked currents through recombinant receptors in tsA 201 cells. The format is cell-based.

For another data set, the target named is T5, α3β3γ2S GABAA receptor (Rattus norvegicus, UniProt P18508+P20236+P63079).
T5 construct: expressed in transfected cells; host or cells: tsA 201 cells
The data set is described as above. The format is cell-based. The conditions noted are these: 30 μM flupirtine, normalized to 30 μM GABA in solvent, n.s. vs solvent.

The subject of a further data set is Kv7 channels. More on the design: method as in Klinger et al., 2012. The conditions noted are these: ref Klinger et al., 2012; read-out: EC50 for the facilitation of Kv7 channels; cited from earlier work.
For data set [8], the target named is T6, δ-containing GABAA receptors in DH neurons (Rattus norvegicus, UniProt P18506).
T6 construct: endogenous in cells; host or cells: primary cultured rat dorsal horn neurons
Kind of data set: THIP-evoked currents in dorsal horn neurons. The format is cell-based. To be noted: 3 μM THIP; concentration-dependent; more pronounced than on GABA currents; at 10 μM larger than on K+ currents.

In the next data set the target is T7, α4β3γ2S GABAA receptor (Rattus norvegicus, UniProt P18508+P28471+P63079).
T7 construct: expressed in transfected cells; host or cells: tsA 201 cells
The experiment in a line: GABA-evoked currents through recombinant receptors in tsA 201 cells. The format is cell-based. The conditions noted are these: 30 μM flupirtine, normalized to 30 μM GABA in solvent.

For data set [9], the system named is aIPSCs in hippocampal neurons. Kind of data set: Autaptic inhibitory postsynaptic currents (aIPSCs) in hippocampal microcultures. In kind it is cell-based, rat.
The test system of data set [10] is GABAA receptors in DH neurons. Kind of data set: GABA-evoked currents in dorsal horn neurons. The conditions noted are these: 3 μM GABA; concentration-dependent. The format is cell-based, rat.
Another data set addresses T8, α1β2γ2S GABAA receptor (Rattus norvegicus, UniProt P18508+P62813+P63138).
T8 construct: expressed in transfected cells; host or cells: tsA 201 cells
Kind of data set: GABA-evoked currents through recombinant receptors in tsA 201 cells. In kind it is cell-based.

The target in another data set is T9, α4β3 GABAA receptor (Rattus norvegicus, UniProt P28471+P63079).
T9 construct: expressed in transfected cells; host or cells: tsA 201 cells
The data set is described as above. In kind it is cell-based. The conditions noted are these: 30 μM flupirtine, normalized to 30 μM GABA in solvent.

On the set-up of data set [11]: method as in Friedel and Fitton, 1993. To be noted: ref Friedel and Fitton, 1993; cited from earlier work.
The next data set addresses T10, α2β2γ2S GABAA receptor (Rattus norvegicus, UniProt P18508+P23576+P63138).
T10 construct: expressed in transfected cells; host or cells: tsA 201 cells
Kind of data set: GABA-evoked currents through recombinant receptors in tsA 201 cells. The format is cell-based. To be noted: 30 μM flupirtine, normalized to 30 μM GABA in solvent, n.s. vs solvent.

The target of data set [12] is T11, heteromeric Kv7.2/Kv7.3 channels (UniProt O43526+O88944).
T11 construct: expressed in transfected cells; host or cells: tsA 201 cells
The experiment in a line: Currents through recombinant Kv7 channels in tsA 201 cells, ramp hyperpolarizations, amplitude at −30 mV. The format is cell-based.

The test system of data set [13] is untransfected tsA 201 cells. The experiment in a line: Control recordings in untransfected tsA 201 cells. In kind it is cell-based. The conditions noted are these: control experiments. The procedure: Primary cultures of rat hippocampal and DH neurons were prepared as described previously (Klinger et al., [2012]). Micro-island cultures were obtained as detailed elsewhere (Dorostkar and Boehm, [2007]). For heterologous expression of GABAA receptors and Kv7 channels, tsA 201 cells (a subclone of HEK 293 cells) were cultured in DMEM containing 1 g · L^−1 glucose and 10% heat-inactivated fetal calf serum. Cells were transfected using ExGen 500 or TurboFect according to the manufacturer's recommendations, with a transfection ratio of 1:1 for αβ receptors, 1:1:8 for αβγ or αβδ receptors and 1:1 for heteromeric Kv7.2/Kv7.3 channels. The day after transfection, cells were seeded at a low density and used for patch-clamp recordings 24–48 h after transfection.

The nature of data set [14]: Plasma pharmacokinetics and therapeutic plasma levels of flupirtine (literature). The format is in vivo. The conditions noted are these: after single doses.
For data set [15] the following is noted: cited from earlier work.
In a further data set the target is T12, α5β3γ2S GABAA receptor (Rattus norvegicus, UniProt P18508+P19969+P63079).
T12 construct: expressed in transfected cells; host or cells: tsA 201 cells
Kind of data set: GABA-evoked currents through recombinant receptors in tsA 201 cells. The format is cell-based. To be noted: 30 μM flupirtine, normalized to 30 μM GABA in solvent.

The subject of data set [16] is Kv7 channels in DH neurons. The experiment in a line: K+ currents in dorsal horn neurons, ramp hyperpolarizations, amplitude at −30 mV. The format is cell-based, rat. To be noted: 3 and 10 μM flupirtine; quantified at −30 mV.

T4 sequence (P62813 28-455): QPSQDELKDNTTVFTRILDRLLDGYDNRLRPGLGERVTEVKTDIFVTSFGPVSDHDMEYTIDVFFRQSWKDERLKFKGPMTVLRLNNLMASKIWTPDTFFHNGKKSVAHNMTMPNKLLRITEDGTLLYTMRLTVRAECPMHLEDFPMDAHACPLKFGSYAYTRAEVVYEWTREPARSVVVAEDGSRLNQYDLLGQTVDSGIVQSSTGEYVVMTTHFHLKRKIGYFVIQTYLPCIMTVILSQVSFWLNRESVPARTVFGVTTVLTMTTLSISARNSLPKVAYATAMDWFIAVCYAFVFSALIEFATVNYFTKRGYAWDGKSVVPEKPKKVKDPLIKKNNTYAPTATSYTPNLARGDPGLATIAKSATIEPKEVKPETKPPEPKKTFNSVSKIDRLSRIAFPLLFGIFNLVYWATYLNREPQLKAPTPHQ
T4 sequence (P63138 25-474 limits assumed): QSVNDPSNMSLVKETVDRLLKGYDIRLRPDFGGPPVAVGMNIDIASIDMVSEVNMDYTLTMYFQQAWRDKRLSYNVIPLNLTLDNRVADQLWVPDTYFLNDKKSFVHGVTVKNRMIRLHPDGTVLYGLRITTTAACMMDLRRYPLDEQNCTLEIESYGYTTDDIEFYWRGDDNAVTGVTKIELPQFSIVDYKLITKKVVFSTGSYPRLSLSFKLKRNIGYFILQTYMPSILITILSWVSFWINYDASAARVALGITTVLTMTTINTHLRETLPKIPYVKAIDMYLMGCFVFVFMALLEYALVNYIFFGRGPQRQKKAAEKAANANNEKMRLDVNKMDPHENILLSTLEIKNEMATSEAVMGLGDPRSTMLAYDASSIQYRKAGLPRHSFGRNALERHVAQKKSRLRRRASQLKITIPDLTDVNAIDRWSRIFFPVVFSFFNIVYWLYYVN
T4 sequence (P18506 17-449 limits assumed): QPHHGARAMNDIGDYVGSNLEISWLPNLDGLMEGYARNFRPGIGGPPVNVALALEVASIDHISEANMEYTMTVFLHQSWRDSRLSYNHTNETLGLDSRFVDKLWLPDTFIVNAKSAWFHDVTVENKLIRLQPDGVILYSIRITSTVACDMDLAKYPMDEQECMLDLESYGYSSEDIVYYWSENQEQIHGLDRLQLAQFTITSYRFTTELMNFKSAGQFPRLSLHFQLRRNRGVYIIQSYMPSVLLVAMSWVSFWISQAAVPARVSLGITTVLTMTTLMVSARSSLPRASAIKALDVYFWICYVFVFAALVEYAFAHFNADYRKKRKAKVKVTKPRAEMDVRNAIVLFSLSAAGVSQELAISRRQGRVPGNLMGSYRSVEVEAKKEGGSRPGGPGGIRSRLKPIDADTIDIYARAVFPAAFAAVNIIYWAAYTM
T3 sequence (P28471 36-552): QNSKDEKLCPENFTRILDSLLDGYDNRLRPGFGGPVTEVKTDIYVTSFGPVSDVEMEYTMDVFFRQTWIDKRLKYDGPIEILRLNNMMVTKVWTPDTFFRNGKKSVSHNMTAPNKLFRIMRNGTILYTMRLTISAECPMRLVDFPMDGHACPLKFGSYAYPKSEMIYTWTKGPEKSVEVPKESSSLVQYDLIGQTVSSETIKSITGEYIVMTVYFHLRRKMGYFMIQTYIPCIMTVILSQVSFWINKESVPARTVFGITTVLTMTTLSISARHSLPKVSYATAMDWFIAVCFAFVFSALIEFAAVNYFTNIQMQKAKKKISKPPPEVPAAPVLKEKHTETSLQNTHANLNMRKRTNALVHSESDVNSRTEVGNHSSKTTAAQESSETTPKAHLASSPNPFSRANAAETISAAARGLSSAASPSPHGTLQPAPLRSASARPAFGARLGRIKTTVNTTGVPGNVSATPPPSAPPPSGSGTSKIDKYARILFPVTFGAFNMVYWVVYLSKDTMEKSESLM
T3 sequence (P63079 26-473): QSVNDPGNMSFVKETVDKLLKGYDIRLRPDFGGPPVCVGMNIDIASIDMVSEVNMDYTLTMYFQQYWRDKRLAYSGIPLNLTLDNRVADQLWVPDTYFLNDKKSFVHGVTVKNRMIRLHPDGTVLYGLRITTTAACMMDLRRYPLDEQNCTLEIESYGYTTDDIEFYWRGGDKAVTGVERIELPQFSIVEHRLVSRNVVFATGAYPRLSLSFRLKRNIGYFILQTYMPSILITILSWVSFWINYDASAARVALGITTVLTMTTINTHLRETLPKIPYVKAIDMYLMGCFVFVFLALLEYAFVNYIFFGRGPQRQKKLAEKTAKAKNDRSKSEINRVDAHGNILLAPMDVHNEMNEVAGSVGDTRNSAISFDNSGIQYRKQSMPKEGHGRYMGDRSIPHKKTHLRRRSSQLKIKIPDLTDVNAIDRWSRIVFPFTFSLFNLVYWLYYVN
T3 sequence (P18506 17-449 limits assumed): as the sequence (P18506 17-449 limits assumed) above
T8 sequence (P62813 28-455): as the sequence (P62813 28-455) above
T8 sequence (P63138 25-474 limits assumed): as the sequence (P63138 25-474 limits assumed) above
T8 sequence (P18508 39-466): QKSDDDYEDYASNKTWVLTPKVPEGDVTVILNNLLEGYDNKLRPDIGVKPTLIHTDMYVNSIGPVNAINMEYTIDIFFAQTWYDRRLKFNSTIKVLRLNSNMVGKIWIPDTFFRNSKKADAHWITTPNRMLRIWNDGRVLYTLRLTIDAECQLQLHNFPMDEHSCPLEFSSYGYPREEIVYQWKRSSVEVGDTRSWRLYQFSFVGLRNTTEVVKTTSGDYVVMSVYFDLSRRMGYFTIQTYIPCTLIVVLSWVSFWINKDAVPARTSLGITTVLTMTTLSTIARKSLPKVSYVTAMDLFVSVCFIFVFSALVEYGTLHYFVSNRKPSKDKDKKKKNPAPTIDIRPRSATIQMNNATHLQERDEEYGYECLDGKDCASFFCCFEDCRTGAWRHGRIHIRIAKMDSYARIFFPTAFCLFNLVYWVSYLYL
T1 sequence (P18506 17-449 limits assumed): as the sequence (P18506 17-449 limits assumed) above
T6 sequence (P18506 17-449 limits assumed): as above
T2 sequence (P62813 28-455): as the sequence (P62813 28-455) above
T2 sequence (P63138 25-474 limits assumed): as the sequence (P63138 25-474 limits assumed) above
T9 sequence (P28471 36-552): as the sequence (P28471 36-552) above
T9 sequence (P63079 26-473): as the sequence (P63079 26-473) above
T7 sequence (P28471 36-552): as the sequence (P28471 36-552) above
T7 sequence (P63079 26-473): as the sequence (P63079 26-473) above
T7 sequence (P18508 39-466): as the sequence (P18508 39-466) above
T5 sequence (P20236 29-493): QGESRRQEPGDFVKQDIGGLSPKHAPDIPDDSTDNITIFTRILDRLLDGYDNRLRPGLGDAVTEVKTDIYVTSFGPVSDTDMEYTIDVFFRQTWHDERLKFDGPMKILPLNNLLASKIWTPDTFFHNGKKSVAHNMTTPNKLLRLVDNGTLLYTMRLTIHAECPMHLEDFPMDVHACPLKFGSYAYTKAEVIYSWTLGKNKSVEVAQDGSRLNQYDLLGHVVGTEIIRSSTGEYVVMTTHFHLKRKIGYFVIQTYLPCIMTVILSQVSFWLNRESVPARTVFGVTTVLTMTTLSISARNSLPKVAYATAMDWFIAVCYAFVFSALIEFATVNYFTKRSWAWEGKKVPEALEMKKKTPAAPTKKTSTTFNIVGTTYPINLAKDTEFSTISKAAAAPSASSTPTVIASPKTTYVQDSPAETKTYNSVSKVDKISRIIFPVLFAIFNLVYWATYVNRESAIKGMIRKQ
T5 sequence (P63079 26-473): as the sequence (P63079 26-473) above
T5 sequence (P18508 39-466): as the sequence (P18508 39-466) above
T12 sequence (P19969 32-464 limits assumed): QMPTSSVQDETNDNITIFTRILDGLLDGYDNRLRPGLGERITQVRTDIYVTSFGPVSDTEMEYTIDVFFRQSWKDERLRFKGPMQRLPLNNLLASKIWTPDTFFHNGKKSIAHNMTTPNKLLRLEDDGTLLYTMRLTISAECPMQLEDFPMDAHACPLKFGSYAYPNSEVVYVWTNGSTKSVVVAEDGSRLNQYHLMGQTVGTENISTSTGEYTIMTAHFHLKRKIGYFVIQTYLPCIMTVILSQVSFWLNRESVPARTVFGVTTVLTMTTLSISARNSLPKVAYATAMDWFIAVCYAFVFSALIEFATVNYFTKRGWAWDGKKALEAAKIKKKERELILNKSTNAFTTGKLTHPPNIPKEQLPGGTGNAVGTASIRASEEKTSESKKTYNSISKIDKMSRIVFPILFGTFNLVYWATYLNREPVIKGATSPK
T12 sequence (P63079 26-473): as the sequence (P63079 26-473) above
T12 sequence (P18508 39-466): as the sequence (P18508 39-466) above
T10 sequence (P23576 29-451): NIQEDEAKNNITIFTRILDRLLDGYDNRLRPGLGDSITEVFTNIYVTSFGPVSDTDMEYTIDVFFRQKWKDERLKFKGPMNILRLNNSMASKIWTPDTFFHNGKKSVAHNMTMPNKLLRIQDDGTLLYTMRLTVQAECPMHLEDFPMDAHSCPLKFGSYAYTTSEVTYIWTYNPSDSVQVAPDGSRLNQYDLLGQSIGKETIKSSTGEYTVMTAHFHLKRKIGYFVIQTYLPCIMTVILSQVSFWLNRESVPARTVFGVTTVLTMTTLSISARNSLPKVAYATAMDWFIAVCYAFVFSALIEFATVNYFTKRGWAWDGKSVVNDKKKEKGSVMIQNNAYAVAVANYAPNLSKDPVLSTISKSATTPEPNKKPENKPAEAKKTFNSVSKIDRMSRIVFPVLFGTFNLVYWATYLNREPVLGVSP
T10 sequence (P63138 25-474 limits assumed): as the sequence (P63138 25-474 limits assumed) above
T10 sequence (P18508 39-466): as the sequence (P18508 39-466) above

On to `Cc1ncc2n1-c1ccc(Cl)cc1C(c1ccccc1F)=NC2` [midazolam], for which, in [1] (3 μM midazolam), the “Effect on half widths of mIPSCs” value was “increased” and the “Effect on mIPSC amplitudes or rise times” value is “without altering”. For the same compound, the “Effect on holding currents” value in data set [2] (3 μM midazolam) is reported as “slight shift of holding currents in an inward direction”.

Consider penicillin, for which the “Effect on maximal amplitudes of GABA-evoked currents” value in data set [3] (5 mM penicillin) was “significantly reduced”. In addition, the “Effect on mIPSCs” value in [1] (5 mM penicillin) is “abolished”. For the same compound, the “Effect on holding currents” value in data set [2] (5 mM penicillin) is on record as “did not affect”.

Turning to `CCOC(=O)Nc1ccc(NCc2ccc(F)cc2)nc1N` [Flupirtine], the “Reduction of maximal current amplitudes” value in data set [4] is recorded as 18 to 35%. Also, the “Effect of flupirtine on THIP-induced currents” value in data set [5] is given as “augmented”; in [8] it was “enhanced”. Also, the “GABA Emax (normalized) in the presence of flupirtine (30 μM)” value at α1β2 GABAA receptor turned out to be 0.71 ± 0.02; on α4β3δ GABAA receptor (α4β3δ, 30 μM flupirtine, normalized to 30 μM GABA in solvent), 1.55 ± 0.06; in [3] (30 μM flupirtine, normalized to 30 μM GABA in solvent, n.s. vs solvent), 1.25 ± 0.04 n.s; in [3] (5 mM penicillin plus 30 μM flupirtine, normalized to 30 μM GABA in penicillin plus solvent), 1.46 ± 0.03; at α1β2δ GABAA receptor (α1β2δ, 30 μM flupirtine, normalized to 30 μM GABA in solvent), 2.27 ± 0.06; at α3β3γ2S GABAA receptor, 1.93 ± 0.10 n.s. For the same compound, the “GABA Emax (normalized) in the presence of flupirtine (30 μM)” value on α4β3γ2S GABAA receptor is 1.63 ± 0.05; at α1β2γ2S GABAA receptor (30 μM flupirtine, normalized to 30 μM GABA in solvent), 0.85 ± 0.02; on α4β3 GABAA receptor, 0.78 ± 0.02; at α2β2γ2S GABAA receptor, 2.54 ± 0.14 n.s; at α5β3γ2S GABAA receptor, 0.94 ± 0.06. For the same compound, the “Effect of flupirtine on K+ currents at −30 mV” value in [6] (3 μM flupirtine) is “enhanced”; in data set [6] (10 μM flupirtine), “increased”. Also, the half-maximal effective concentration (EC50) at α4β3δ GABAA receptor was 7 µM; at α1β2δ GABAA receptor it was 108 µM; in the data set with Kv7 channels, 5 µM; in [9] (Rattus norvegicus, Hippocampal neuron, n = 6, read-out: EC50 for the effect on aIPSC charge transfer), 12 µM. The “Maximum of flupirtine effect on GABA-evoked currents (normalized to solvent)” value on α4β3δ GABAA receptor (α4β3δ, 1 μM GABA, fixed to the highest value determined) was 1.5; on α1β2δ GABAA receptor it was 28.8. In addition, the “Effect of flupirtine on GABA-evoked currents” value at α4β3δ GABAA receptor (α4β3δ, 3 μM flupirtine, 1 μM GABA) is “potentiated”; at α4β3δ GABAA receptor (α4β3δ, 10 μM flupirtine), “augmented”; in data set [3] (3 μM flupirtine, presence of penicillin), “enhanced”; in data set [3] (10 μM flupirtine, absence of penicillin), “increased”; in data set [3] (10 μM flupirtine, presence of penicillin, more pronounced than on the other currents) it was “increased”; at α1β2δ GABAA receptor, “potentiated; also recorded: augmented”. The “Effect of flupirtine on GABA-evoked currents” value on α1β2γ2S GABAA receptor (10 μM flupirtine) is “augmented”. In addition, the “Effect on aEPSCs” value in data set [7] (aIPSCs (former) vs aEPSCs (latter)) is “only the former ones were affected”. In addition, the “Maximal increase in GABA-evoked current amplitudes (factor)” value in data set [3] was ~9 and > 8; in [3] (3 μM GABA in solvent, no penicillin) it was 2.5 and < 3. In addition, in data set [9], the “Effect on aIPSC peak amplitudes” value is on record as “unaltered”. The “Effect of flupirtine on GABA-induced currents” value in [10] is listed as “enhanced”. For the same compound, the “Effect on all characteristics of mIPSCs (amplitudes, rise times, half widths)” value in data set [1] (30 μM flupirtine, 0.5 μM tetrodotoxin plus 10 μM CNQX) is given as “remained unaltered”. The “Bound by plasma proteins” value in data set [11] was 80%. For the same compound, the “Effect of flupirtine on currents through Kv7 channels at −30 mV” value in data set [12] (3 μM flupirtine) is on record as “enhanced”; in data set [12] (10 μM flupirtine), “augmented”. Moreover, in data set [13], the “Effect on currents in untransfected cells” value was “failed to enhance any type of current”. Also, in [14], the Free plasma concentrations fell in the range of 1000 to 2000 nM. In data set [15] (four regularly spaced oral doses a day, ref Friedel and Fitton, 1993), the Accumulation result is listed as “more than twofold”. For the same compound, the Plasma half-life result in data set [15] (ref Friedel and Fitton, 1993) was “about 10 h”. Moreover, in data set [15] (single dose of 200 mg, ref Hummel et al., 1991), the Plasma concentrations result is “around 5 μM”. The “Effect on holding currents” value in data set [2] (30 μM flupirtine, −70 mV) is given as “shifted towards more negative values”. Besides, the “Effect on amplitudes of bicuculline-sensitive tonic currents” value in data set [2] (3 to 30 μM flupirtine, concentration-dependent) is on record as “enhanced”. Also, the “Effect of flupirtine on K+ currents” value in [16] is given as “enhanced”.

For the compound `NCCCC(=O)O` [GABA], the “GABA Emax (normalized), solvent” value is reported as 1.02 ± 0.02 in [3] (5 mM penicillin present, normalized to 30 μM GABA in penicillin plus solvent) and 1.33 ± 0.03 in data set [3] (solvent, normalized to current by 30 μM GABA in solvent).

`N#Cc1cc2nc(O)c(O)nc2cc1[N+](=O)[O-]` [CNQX, cyano-2,3-dihydroxy-7-nitroquinoxaline]: the “Effect on aEPSCs” value in data set [7] (10 μM CNQX) was “blocked”.
